Experimental data: the supplement of paper PMC10627819

How the values were obtained:
Experiment in all cases: Bliss interaction score (quartile over a dose matrix) (fitness difference); higher = more antagonism (negative = synergy)
B. subtilis 168 = tested on: B. subtilis 168
In short: (§1)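 Fitness is OD595 at stationary-phase entry relative to the plate's robust no-drug mean, capped at 1. Single-drug fitness was inferred from combinations. The Bliss score is observed minus product-expected fitness, summarised by quartiles over technical, biological and donor/recipient replicates.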

S. aureus DSM 20231 = tested on: S. aureus DSM 20231
In short: as §1

S. aureus Newman = tested on: S. aureus Newman
In short: as §1

S. pneumoniae D39V = tested on: S. pneumoniae D39V
In short: as §1
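Further: first quartile when negative (synergy) and third quartile when positive (antagonism).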

| SMILES | Bliss interaction score (B. subtilis 168) | Bliss interaction score (S. aureus DSM 20231) | Bliss interaction score (S. aureus Newman) | Bliss interaction score (S. pneumoniae D39V) | Bliss interaction score (B. subtilis 168; main component drawn) | Bliss interaction score (S. aureus DSM 20231; main component drawn) | Bliss interaction score (S. aureus Newman; main component drawn) | Bliss interaction score (S. pneumoniae D39V; main component drawn) |
| --- | --- | --- | --- | --- | --- | --- | --- | --- |
| CN[C@H](CC(C)C)C(=O)N[C@H]1C(=O)N[C@@H](CC(N)=O)C(=O)N[C@H]2C(=O)N[C@H]3C(=O)N[C@H](C(=O)N[C@H](C(=O)O)c4cc(O)cc(O)c4-c4cc3ccc4O)[C@H](O[C@H]3C[C@](C)(N)[C@@H](O)[C@H](C)O3)c3ccc(c(Cl)c3)Oc3cc2cc(c3O[C@@H]2O[C@H](CO)[C@@H](O)[C@H](O)[C@H]2O[C@H]2C[C@](C)(NCc3ccc(-c4ccc(Cl)cc4)cc3)[C@@H](O)[C@H](C)O2)Oc2ccc(cc2Cl)[C@H]1O [Oritavancin] + CN(N=O)C(=O)N[C@@H](C=O)[C@@H](O)[C@H](O)[C@H](O)CO [Streptozotocin] | -0.0355 | -0.0564 | -0.063 | -0.0337 | – | – | – | – |
| CN[C@H](CC(C)C)C(=O)N[C@H]1C(=O)N[C@@H](CC(N)=O)C(=O)N[C@H]2C(=O)N[C@H]3C(=O)N[C@H](C(=O)N[C@H](C(=O)O)c4cc(O)cc(O)c4-c4cc3ccc4O)[C@H](O[C@H]3C[C@](C)(N)[C@@H](O)[C@H](C)O3)c3ccc(c(Cl)c3)Oc3cc2cc(c3O[C@@H]2O[C@H](CO)[C@@H](O)[C@H](O)[C@H]2O[C@H]2C[C@](C)(NCc3ccc(-c4ccc(Cl)cc4)cc3)[C@@H](O)[C@H](C)O2)Oc2ccc(cc2Cl)[C@H]1O [Oritavancin] + CN[C@@H]1[C@H](O)[C@H](NC)[C@H]2O[C@@]3(O)C(=O)C[C@@H](C)O[C@H]3O[C@@H]2[C@H]1O [Spectinomycin] | -0.0238 | -0.0487 | -0.154 | 0.0219 | – | – | – | – |
| CN[C@H](CC(C)C)C(=O)N[C@H]1C(=O)N[C@@H](CC(N)=O)C(=O)N[C@H]2C(=O)N[C@H]3C(=O)N[C@H](C(=O)N[C@H](C(=O)O)c4cc(O)cc(O)c4-c4cc3ccc4O)[C@H](O[C@H]3C[C@](C)(N)[C@@H](O)[C@H](C)O3)c3ccc(c(Cl)c3)Oc3cc2cc(c3O[C@@H]2O[C@H](CO)[C@@H](O)[C@H](O)[C@H]2O[C@H]2C[C@](C)(NCc3ccc(-c4ccc(Cl)cc4)cc3)[C@@H](O)[C@H](C)O2)Oc2ccc(cc2Cl)[C@H]1O [Oritavancin] + CN[C@@H]1[C@H](O[C@H]2[C@H](O[C@H]3[C@H](O)[C@@H](O)[C@H](N=C(N)N)[C@@H](O)[C@@H]3N=C(N)N)O[C@@H](C)[C@]2(O)C=O)O[C@@H](CO)[C@H](O)[C@H]1O [Streptomycin] | -0.0219 | -0.111 | -0.138 | 0.0462 | – | – | – | – |
| CN[C@H](CC(C)C)C(=O)N[C@H]1C(=O)N[C@@H](CC(N)=O)C(=O)N[C@H]2C(=O)N[C@H]3C(=O)N[C@H](C(=O)N[C@H](C(=O)O)c4cc(O)cc(O)c4-c4cc3ccc4O)[C@H](O[C@H]3C[C@](C)(N)[C@@H](O)[C@H](C)O3)c3ccc(c(Cl)c3)Oc3cc2cc(c3O[C@@H]2O[C@H](CO)[C@@H](O)[C@H](O)[C@H]2O[C@H]2C[C@](C)(NCc3ccc(-c4ccc(Cl)cc4)cc3)[C@@H](O)[C@H](C)O2)Oc2ccc(cc2Cl)[C@H]1O [Oritavancin] + CN[C@H](CC(C)C)C(=O)N[C@H]1C(=O)N[C@@H](CC(N)=O)C(=O)N[C@H]2C(=O)N[C@H]3C(=O)N[C@H](C(=O)N[C@H](C(=O)O)c4cc(O)cc(O)c4-c4cc3ccc4O)[C@H](O)c3ccc(c(Cl)c3)Oc3cc2cc(c3O[C@@H]2O[C@H](CO)[C@@H](O)[C@H](O)[C@H]2O[C@H]2C[C@](C)(N)[C@H](O)[C@H](C)O2)Oc2ccc(cc2Cl)[C@H]1O [Vancomycin] | 0.0254 | -0.0879 | -0.0787 | 0.105 | – | – | – | – |
| CN[C@H](CC(C)C)C(=O)N[C@H]1C(=O)N[C@@H](CC(N)=O)C(=O)N[C@H]2C(=O)N[C@H]3C(=O)N[C@H](C(=O)N[C@H](C(=O)O)c4cc(O)cc(O)c4-c4cc3ccc4O)[C@H](O[C@H]3C[C@](C)(N)[C@@H](O)[C@H](C)O3)c3ccc(c(Cl)c3)Oc3cc2cc(c3O[C@@H]2O[C@H](CO)[C@@H](O)[C@H](O)[C@H]2O[C@H]2C[C@](C)(NCc3ccc(-c4ccc(Cl)cc4)cc3)[C@@H](O)[C@H](C)O2)Oc2ccc(cc2Cl)[C@H]1O [Oritavancin] + CO[C@H]1/C=C/O[C@@]2(C)Oc3c(C)c(O)c4c(O)c(c(/C=N/N5CCN(C)CC5)c(O)c4c3C2=O)NC(=O)/C(C)=C\C=C\[C@H](C)[C@H](O)[C@@H](C)[C@@H](O)[C@@H](C)[C@H](OC(C)=O)[C@@H]1C [Rifampicin] | -0.0184 | -0.0199 | 0.0357 | 0.106 | – | – | – | – |
| CN[C@H](CC(C)C)C(=O)N[C@H]1C(=O)N[C@@H](CC(N)=O)C(=O)N[C@H]2C(=O)N[C@H]3C(=O)N[C@H](C(=O)N[C@H](C(=O)O)c4cc(O)cc(O)c4-c4cc3ccc4O)[C@H](O[C@H]3C[C@](C)(N)[C@@H](O)[C@H](C)O3)c3ccc(c(Cl)c3)Oc3cc2cc(c3O[C@@H]2O[C@H](CO)[C@@H](O)[C@H](O)[C@H]2O[C@H]2C[C@](C)(NCc3ccc(-c4ccc(Cl)cc4)cc3)[C@@H](O)[C@H](C)O2)Oc2ccc(cc2Cl)[C@H]1O [Oritavancin] + COc1cc(Cc2cnc(N)nc2N)cc(OC)c1OC [Trimethoprim] | 0.0391 | -0.0406 | -0.111 | 0.078 | – | – | – | – |
| CN[C@H](CC(C)C)C(=O)N[C@H]1C(=O)N[C@@H](CC(N)=O)C(=O)N[C@H]2C(=O)N[C@H]3C(=O)N[C@H](C(=O)N[C@H](C(=O)O)c4cc(O)cc(O)c4-c4cc3ccc4O)[C@H](O[C@H]3C[C@](C)(N)[C@@H](O)[C@H](C)O3)c3ccc(c(Cl)c3)Oc3cc2cc(c3O[C@@H]2O[C@H](CO)[C@@H](O)[C@H](O)[C@H]2O[C@H]2C[C@](C)(NCc3ccc(-c4ccc(Cl)cc4)cc3)[C@@H](O)[C@H](C)O2)Oc2ccc(cc2Cl)[C@H]1O [Oritavancin] + COc1ccc(C[C@H](N)C(=O)N[C@H]2[C@@H](O)[C@H](n3cnc4c(N(C)C)ncnc43)O[C@@H]2CO)cc1 [Puromycin] | 0.0232 | -0.0699 | -0.0754 | 0.0762 | – | – | – | – |
| CN[C@H](CC(C)C)C(=O)N[C@H]1C(=O)N[C@@H](CC(N)=O)C(=O)N[C@H]2C(=O)N[C@H]3C(=O)N[C@H](C(=O)N[C@H](C(=O)O)c4cc(O)cc(O)c4-c4cc3ccc4O)[C@H](O[C@H]3C[C@](C)(N)[C@@H](O)[C@H](C)O3)c3ccc(c(Cl)c3)Oc3cc2cc(c3O[C@@H]2O[C@H](CO)[C@@H](O)[C@H](O)[C@H]2O[C@H]2C[C@](C)(NCc3ccc(-c4ccc(Cl)cc4)cc3)[C@@H](O)[C@H](C)O2)Oc2ccc(cc2Cl)[C@H]1O [Oritavancin] + C[n+]1ccc(-c2cc[n+](C)cc2)cc1 [Paraquat] | -0.0221 | -0.0738 | -0.065 | -0.044 | – | – | – | – |
| CN[C@H](CC(C)C)C(=O)N[C@H]1C(=O)N[C@@H](CC(N)=O)C(=O)N[C@H]2C(=O)N[C@H]3C(=O)N[C@H](C(=O)N[C@H](C(=O)O)c4cc(O)cc(O)c4-c4cc3ccc4O)[C@H](O[C@H]3C[C@](C)(N)[C@@H](O)[C@H](C)O3)c3ccc(c(Cl)c3)Oc3cc2cc(c3O[C@@H]2O[C@H](CO)[C@@H](O)[C@H](O)[C@H]2O[C@H]2C[C@](C)(NCc3ccc(-c4ccc(Cl)cc4)cc3)[C@@H](O)[C@H](C)O2)Oc2ccc(cc2Cl)[C@H]1O [Oritavancin] + Cc1cc(NS(=O)(=O)c2ccc(N)cc2)no1 [Sulfamethoxazol] | -0.0377 | -0.0575 | 0.0801 | -0.0491 | – | – | – | – |
| CN[C@H](CC(C)C)C(=O)N[C@H]1C(=O)N[C@@H](CC(N)=O)C(=O)N[C@H]2C(=O)N[C@H]3C(=O)N[C@H](C(=O)N[C@H](C(=O)O)c4cc(O)cc(O)c4-c4cc3ccc4O)[C@H](O[C@H]3C[C@](C)(N)[C@@H](O)[C@H](C)O3)c3ccc(c(Cl)c3)Oc3cc2cc(c3O[C@@H]2O[C@H](CO)[C@@H](O)[C@H](O)[C@H]2O[C@H]2C[C@](C)(NCc3ccc(-c4ccc(Cl)cc4)cc3)[C@@H](O)[C@H](C)O2)Oc2ccc(cc2Cl)[C@H]1O [Oritavancin] + Cc1onc(-c2ccccc2)c1C(=O)N[C@@H]1C(=O)N2[C@@H]1SC(C)(C)[C@@H]2C(=O)O [Oxacillin] | 0.0256 | -0.0461 | -0.0656 | -0.167 | – | – | – | – |
| CN[C@H](CC(C)C)C(=O)N[C@H]1C(=O)N[C@@H](CC(N)=O)C(=O)N[C@H]2C(=O)N[C@H]3C(=O)N[C@H](C(=O)N[C@H](C(=O)O)c4cc(O)cc(O)c4-c4cc3ccc4O)[C@H](O[C@H]3C[C@](C)(N)[C@@H](O)[C@H](C)O3)c3ccc(c(Cl)c3)Oc3cc2cc(c3O[C@@H]2O[C@H](CO)[C@@H](O)[C@H](O)[C@H]2O[C@H]2C[C@](C)(NCc3ccc(-c4ccc(Cl)cc4)cc3)[C@@H](O)[C@H](C)O2)Oc2ccc(cc2Cl)[C@H]1O [Oritavancin] + Cn1nnc(-c2ccc(-c3ccc(N4C[C@H](CO)OC4=O)cc3F)cn2)n1 [Tedizolid] | -0.0251 | -0.0541 | -0.0895 | -0.0205 | – | – | – | – |
| CN[C@H](CC(C)C)C(=O)N[C@H]1C(=O)N[C@@H](CC(N)=O)C(=O)N[C@H]2C(=O)N[C@H]3C(=O)N[C@H](C(=O)N[C@H](C(=O)O)c4cc(O)cc(O)c4-c4cc3ccc4O)[C@H](O[C@H]3C[C@](C)(N)[C@@H](O)[C@H](C)O3)c3ccc(c(Cl)c3)Oc3cc2cc(c3O[C@@H]2O[C@H](CO)[C@@H](O)[C@H](O)[C@H]2O[C@H]2C[C@](C)(NCc3ccc(-c4ccc(Cl)cc4)cc3)[C@@H](O)[C@H](C)O2)Oc2ccc(cc2Cl)[C@H]1O [Oritavancin] + Oc1cc(Cl)ccc1Oc1ccc(Cl)cc1Cl [Triclosan] | 0.0201 | 0.108 | -0.0473 | 0.102 | – | – | – | – |
| CO[C@H]1/C=C/O[C@@]2(C)Oc3c(C)c(O)c4c(O)c(c(/C=N/N5CCN(C)CC5)c(O)c4c3C2=O)NC(=O)/C(C)=C\C=C\[C@H](C)[C@H](O)[C@@H](C)[C@@H](O)[C@@H](C)[C@H](OC(C)=O)[C@@H]1C [Rifampicin] + CCCCCCCCCC(=O)N[C@@H]1[C@H]([C@@H]([C@H](O[C@H]1OC2=C3C=C4C=C2OC5=C(C=C(C=C5)[C@H]([C@H]6C(=O)N[C@@H](C7=C(C(=CC(=C7)O)OC8[C@H]([C@H]([C@@H]([C@H](O8)CO)O)O)O)C9=C(C=CC(=C9)[C@H](C(=O)N6)NC(=O)[C@@H]4NC(=O)[C@@H]1C2=CC(=CC(=C2)OC2=C(C=CC(=C2)[C@H](C(=O)N[C@H](CC2=CC(=C(O3)C=C2)Cl)C(=O)N1)N)O)O)O)C(=O)O)O[C@H]1[C@@H]([C@H]([C@@H]([C@H](O1)CO)O)O)NC(=O)C)Cl)CO)O)O [Teicoplanin] | – | – | – | – | 0.176 | -0.0357 | -0.0536 | 0.0769 |
| CO[C@H]1/C=C/O[C@@]2(C)Oc3c(C)c(O)c4c(O)c(c(/C=N/N5CCN(C)CC5)c(O)c4c3C2=O)NC(=O)/C(C)=C\C=C\[C@H](C)[C@H](O)[C@@H](C)[C@@H](O)[C@@H](C)[C@H](OC(C)=O)[C@@H]1C [Rifampicin] + CC[C@H]1OC(=O)[C@H](C)C(=O)[C@H](C)[C@@H](O[C@@H]2O[C@H](C)C[C@H](N(C)C)[C@H]2O)[C@](C)(OC)C[C@@H](C)C(=O)[C@H](C)[C@H]2N(CCCCn3cnc(-c4cccnc4)c3)C(=O)O[C@]12C [Telithromycin] | 0.0808 | 0.0559 | 0.0171 | -0.157 | – | – | – | – |
